The text below walks through data of article PMC7667655, “Targeted Covalent Inhibition of Plasmodium FK506 Binding Protein 35” (ACS Medicinal Chemistry Letters, 2020).

Data set [1] concerns the target T1, nLuc-tagged FKBP12 (Homo sapiens, UniProt P62942).
T1 construct: full length Plasmodium falciparum FKBP35 and human FKBP12 DNA were; expressed in transfected cells
The data set is described as follows: NanoBRET cellular target engagement, nLuc-FKBP12. Format: cell-based.

Data set [2] concerns the target T2, FBD35 (PfFKBP35 binding domain) (Plasmodium falciparum, UniProt Q8I4V8).
T2 construct: FKBP35 Q5 -A128; 6His-SUMO (N, cleaved yes); made in house; host or cells: E. coli BL21 DE3
The data set is described as follows: Differential scanning calorimetry, FBD35. The settings on record: read-out: FBD35 ΔTM.

The target in data set [3] is T3, FKBP12 (Homo sapiens, UniProt P62942).
T3 construct: 6His-SUMO (N, cleaved yes); made in house; host or cells: E. coli (identical protocol to FBD35, BL21 DE3)
The data set is described as follows: Fluorescence polarization competition, FKBP12. Type of data set: binding. In general terms: In fluorescence polarisation assays a small probe gives low polarisation when free and higher when bound to something large.

The subject of data set [4] is NF54 P. falciparum parasites. As to the kind of experiment: P. falciparum strain NF54 growth-inhibition assay. Type of data set: cell-based. The conditions noted are these: Plasmodium falciparum; luciferase reporter NF54 line, 72 h. As to the method:
Figure 6 P. falciparum strain NF54 growth-inhibition assay. […] Proliferation was measured by luminescence after a complete life-cycle and normalized to DMSO (100%) and chloroquine (100 nM, 0%). (B) Structural differences between synthetic ligands and compound IC50s (μM).
Substrate and Extracellular NanoLuc® Inhibitor (Promega, cat. N2160) were diluted at 1:166 and 1:500, respectively, in Opti -MEM I Reduced Serum Media. 25 µL of this solution was added to each well and plate was read immediately using an EnVision Multimode Plate Reader (PerkinElmer). The BRET ratio was calculated using the following formula:
BRET ratio = acceptorsample – acceptorno tracer control donorsample donorno tracer control
NanoBRET Target Engagement Assay (384-well)
HEK293T cells stably expressing either nLuc-FKBP12 or nLuc-FKBP35 were plated at 0.2×10^6 cells/mL in white, clear -bottom 384-well plates (Sigma Aldrich) in Opti -MEM I Reduced Serum Media (ThermoFisher Scientific) using a Mutidrop Combi Reagent Dispenser (ThermoFisher Scientific). Cells were incubated overnight at 37 °C, 5% CO 2. Using a Tecan D300e, the Rap-Gly-BDP tracer was added to cells to 1 µM. Plates were shaken at 700 RPM on an orbital plate shaker and incubated at 37 °C, 5% CO 2 for 10 minutes. Test compounds were added at the indicated concentrations using a Tecan D300e. Plates were shaken at 700 RPM on an orbital plate shaker and incubated at 37 °C, 5% CO 2 for 2 hours. NanoBRET Nano -Glo Substrate and Extracellular NanoLuc® Inhibitor (Promega, cat. N2160) were diluted at 1:166 and 1:500, respectively, in Opti-MEM I Reduced Serum Media. 10 µL of this solution was added to each well and plate was read immediately using an EnVision Multimode Plate Reader (PerkinElmer). The BRET ratio was calculated using the above formula.
Parasite Culture and Inhibition
NF54 P. falciparum parasites constitutively expressing Renilla luciferase (RLuc) and Blasticidin-S deaminase under the PfHsp86 5’ and PfHRP2 3‘ regulatory sequences integrated in the cg6 chromosomal locus 4 were maintained continuous ly in media consisting of human erythrocytes at 2% haematocrit (O+) resuspended in RPMI 1640 (Gibco® 31800022) supplemented with 5% Albumax (Gibco® 11021045; complete medium) and 2.5 µg/mL of Blasticidin (RPI Corp B12150-0.1) in a gas mixture consisting of 5% CO2, 1% O2, and 94% N2 at 37 °C (Trager and Jensen 2005).
Parasitemia was determined every 48 h through microscopic examination of thin blood smears fixed in methanol, stained with 10% Giemsa solution, and sub-cultured to 0.5-1% parasitaemia.
Compound susceptibility assays
(§1) In 96-well round-bottom plates, sorbitol -synchronized cultures of ring-stage NF54 P. falciparum parasites were established in triplicate and treated with varying concentrations of the inhibitors (25-0.0038 μM) serially diluted in complete medium. Parasite proliferation rates were analyzed after 72 h using the Renilla-Glo Luciferase Assay, and luminescence was measured using the GloMax® Discover Microplate Reader. EC 50 values were obtained from corrected dose-response curves using GraphPad Prism (version 5; GraphPad Software). Data represent the mean % luminescence relative to 5% DMSO-treated (vehicle, 100% growth) and 100 nM chloroquine-treated (no growth) controls.
(§2) In black, clear-bottom 96-well plates (No. 3904 Corning Life Sciences), HEK293T cells were plated at 2x10^5 cells/mL in DMEM high glucose, pyruvate media (ThermoFisher Scientific, cat. 11995073) supplemented with 10% FBS and 1% pen -strep (100 μL final volume). Cells were incubated overnight at 37°C, 5% CO2. Using a Tecan D300e digital dispenser, cells were dosed in triplicate […]
concentration, 100 mM stock in DMSO) and Carfilzomib (10 µM to 4.6 nM final concentration, 10 mM stock in DMSO) normalizing DMSO to 0.25%. Cells were then incubated at 37 °C, 5% CO2 for 72 hours. Following incubation, cells were treated with 70 µL CellTiter-Glo® Luminescent Cell […]

For data set [5], the target named is T2, FBD35 (PfFKBP35 binding domain). As to the kind of experiment: Fluorescence polarization competition, FBD35.
Data set [6] addresses T4, nLuc-tagged full length PfFKBP35 (Plasmodium falciparum, UniProt Q8I4V8).
T4 construct: nanoluciferase-tagged (nLuc) full length PfFKBP35 or nLuc-tagged FKBP12; expressed in transfected cells
As to the kind of experiment: NanoBRET cellular target engagement, nLuc-FKBP35. Format: cell-based. (In general: BRET reads energy transfer from a luciferase to a nearby fluorophore.)

Data set [7] can be described thus: Plasma stability assay, human. Format: in vitro ADME. The conditions noted are these: percent remaining, 1 µM, 37 °C, 5 hours. How it is done: as §1, §2
(§3) concentration, 100 mM stock in DMSO) and Carfilzomib (10 µM to 4.6 nM final concentration, 10 mM stock in DMSO) normalizing DMSO to 0.25%. Cells were then incubated at 37 °C, 5% CO2 for 72 hours. Following incubation, cells were treated with 70 µL CellTiter-Glo® Luminescent Cell Viability Assay Reagent (Promega, cat. G7570) and incubated in the dark at room temperature for 30 minutes. Plates were read using an EnVision Multimode Plate Reader (PerkinElmer). Cell viability data was normalized to DMSO controls and analyzed in GraphPad Prism 8 by fitting the data to “[Inhibitor] vs. normalized response – variable slope” model to obtain the curves.
(§4) Each compound was prepared in duplicate at 1 µM final concentration (0.2% DMSO) in human or mouse plasma (Aldrich). Samples were incubated at 37 °C for 5 hours with mixing at 350 rpm on an orbital shaker. Aliquots of each sample were taken at time zero and following 5 hours. Each sample was quenched by adding acetonitrile in a 3:1 ratio and further diluting with 50 µl of PBS.
(§5) After quenching, samples were centrifuged to pellet precipitated partic ulates and an aliquot of supernatant was diluted 1:1 with water. The resulting solution was analyzed by UPLC -MS/MS with compounds detected by MRM detection on a triple quadrupole mass spectrometer. The ratio of compound peak areas at 0 and 5 hours were use d to calculate the percent remaining.

Data set [8] addresses T3, FKBP12. The data set is described as follows: Differential scanning calorimetry, FKBP12. Type of data set: binding. The conditions noted are these: compound 40 µM. A general note: DSC measures the heat that a sample takes up or gives off during a temperature scan.
A short description of data set [9]: Plasma stability assay, mouse. The settings on record: percent remaining, 1 µM, 37 °C, 5 hours. Format: in vitro ADME. As to the method: as §1, §2, §3, §4, §5
Data set [10] has as its target T5, FKBP35 (Plasmodium falciparum, UniProt Q8I4V8).
T5 construct: FKBP35 Q5 -A128; 6His-SUMO (N, cleaved yes); made in house; host or cells: E. coli BL21 DE3
The data set is described as follows: Mass spec of FKBP35 incubated with D44 analogs. Type of data set: biochemical. As to the method:
Prior to DSC experiments 400 µL of the reaction mixture was saved f or mass spectrometry analysis. For intact mass analysis, 100 µL of the reaction mixture was diluted to 0.05 mg/mL and injected onto a ZORBAX StableBond 300 C8 HPLC column [2.1 x 100 mm, 3.5 µm (Agilent)] on an Agilent HPLC binary pump system. Initial m obile phase conditions were 15% acetonitrile/85% water, both containing 0.1% formic acid. Protein was desalted for 2 minutes and eluted from the column with a gradient of 15% to 75% acetonitrile over 10 min. Intact mass measurement was performed on a Q Exa ctive mass spectrometer with an ESI source (Thermo Scientific). Source parameters: spray voltage, 3500 V; capillary temperature, 340°C; sheath gas, 35; auxiliary gas, 5; (gas flows in arbitrary units of the ESI source). MS detection was performed using a Full MS scan acquisition method, scanning over the range 800 -2100 m/z. BioPharma Finder v 3.0 (Thermo Fisher Scientific) was used for data acquisition and analysis. DSC and mass spectrometry experiments were performed in parallel.
For chymotrypsin digestion , 20 µL of the reaction mixture was added to 20 µL of fresh denaturing solution (0.1 M urea, 0.1 M NaCl, adjusted to 10 ml with 50 mM Tris Buffer pH 8.0). Then 10 µL of 10 mM TCEP was added to the mixture, which was then incubated at 37 °C for 60 minutes. To prevent modification of free thiol groups in FKBP proteins during digestion, 4 µL of 50 mM iodoacetamide (IAA, Sigma No. A3221) was added followed by incubation at room temperature in the dark for 30 minutes. After the incubation, the reaction mixture w as brought up to 200 µL with 140 µL of 10 mM Trizma pH 7.5. The peptide fragments were generated by adding chymotrypsin at a molar ratio of 1 chymotrypsin : 100 FKBP protein and incubated overnight at 37 °C. The reaction was quenched by adding 10 µL of form ic acid (~5% of total volume) followed by a few seconds of a vortex pulse.
Samples were analyzed using a Thermo Fisher Scientific Vanquish UHPLC connected to a Q Exactive HF mass spectrometer with a HESI source. Source parameters were as follows: spray voltage, 3500 V; capillary temperature, 300 °C; sheath gas flow, 45; auxiliary gas flow; 10; sweep gas flow, 1; (gas flows in arbitrary units of the HESI source). Digested samples were injected onto an ACQUITY UPLC BEH C18 Column [130Å, 1.7 µm, 2.1 mm X 50 mm (Waters)] held at 45 °C and desalted for 30 s with 5% acetonitrile/95% water, both containing 0.1% formic acid. Peptides were separated using a 5% to 65% acetonitrile gradient over 6.5 min. MS detection was performed using a Full MS/ddMS2 (Top 5) acquisi tion method, scanning over the range 300 -1800 m/z. […]
DSC thermograms were recorded in MicroCal DSC from Malvern with an autosampler. […]

Data set [11] can be described thus: Cell viability assay (CellTiter-Glo). Format: cell-based. The conditions noted are these: human. As to the method: as §1, §2, §3
Each compound was prepared in duplicate at 1 µM final concentration (0.2% DMSO) in human or mouse plasma (Aldrich). […]
After quenching, samples were centrifuged to pellet precipitated partic ulates and an aliquot of supernatant was diluted 1:1 with water. The resulting solution was analyzed by UPLC -MS/MS with compounds detected by MRM detection on a triple quadrupole mass spectrometer. […]

Data set [12] is described as follows: PBS solubility. The settings on record: pH 7.4.
Data set [13] relates to Plasmodium cultured parasites. The settings on record: Figure 1; read-out: IC50 in blood-stage antiplasmodium assays; cited from earlier work.

In brackets after ≈: the same amount, converted by molar mass. Read-outs that look alike come from different tables or passages of the source.

T3 sequence (P62942 whole entry): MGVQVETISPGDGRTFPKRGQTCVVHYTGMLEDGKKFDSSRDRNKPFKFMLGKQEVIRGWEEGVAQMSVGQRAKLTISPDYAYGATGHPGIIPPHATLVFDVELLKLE
T5 sequence (Q8I4V8 5-128): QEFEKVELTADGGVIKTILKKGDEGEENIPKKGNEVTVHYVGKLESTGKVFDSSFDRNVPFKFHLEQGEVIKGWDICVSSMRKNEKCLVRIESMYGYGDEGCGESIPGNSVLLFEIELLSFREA
T2 sequence (Q8I4V8 5-128): as above
T1 sequence (P62942 whole entry): as the sequence (P62942 whole entry) above
T4 sequence (Q8I4V8 whole entry): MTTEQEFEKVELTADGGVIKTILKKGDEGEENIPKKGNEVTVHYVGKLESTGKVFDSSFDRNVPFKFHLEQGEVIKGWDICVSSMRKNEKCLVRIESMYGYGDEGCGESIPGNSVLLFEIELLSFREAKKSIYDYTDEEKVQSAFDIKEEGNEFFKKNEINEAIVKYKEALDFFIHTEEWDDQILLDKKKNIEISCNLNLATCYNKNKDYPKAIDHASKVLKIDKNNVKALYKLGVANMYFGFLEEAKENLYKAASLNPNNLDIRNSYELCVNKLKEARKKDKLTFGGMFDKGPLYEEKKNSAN

Turning to `CCC(=O)OCC(C)(C)C(=O)C(=O)N1CCCC[C@H]1C(=O)O[C@H](CCc1ccc(OC)c(OC)c1)c1ccccc1` [2d], the IC50 – broadly, the concentration that gives 50% inhibition – is 454 nM in data set [1]; 43 nM in [3]; 9900 nM in data set [4]; 99 nM in [5]; 1310 nM in data set [6]. Besides, the ΔTm (in general, the shift of the melting midpoint relative to a reference) at 40 µM was determined as 3 °C in data set [2] and 5.9 °C in data set [8]. In addition, in [7], the “Plasma Stability (human)” value was 1%. Also, in [9], the “Plasma Stability (mouse)” value is listed as 0%.
On to `C=CC(=O)NCc1ccccc1NC(=O)CSc1nc2cccnc2[nH]1` [D44a], for which the results for the “% Abundance of modified FKBP35” value in [10] (incubation temp 37 °C) and in data set [10] (incubation temp RT) were 4.1% and 11.5%, respectively.
On the same counts, the results for `C=CC(=O)NCc1ccc(NC(=O)CSc2nc3cccnc3[nH]2)cc1` [D44c] are 37.0% and 17.1%.
Consider `CO[C@H]1C[C@@H]2CC[C@@H](C)[C@@](O)(O2)C(=O)C(=O)N2CCCC[C@H]2C(=O)O[C@H]([C@H](C)C[C@@H]2CC[C@@H](O)[C@H](OC)C2)CC(=O)[C@H](C)/C=C(\C)[C@@H](O)[C@@H](OC)C(=O)[C@H](C)C[C@H](C)/C=C/C=C/C=C/1C` [Rapamycin, reference compound], for which the IC50 in [4] came out at 1100 nM. For the same compound, the IC50 at 72 h in data set [11] (HEK293T cells, HEK293T, 72 hour treatment, read-out: IC50 cell viability) was found to be 63000 nM.
With `CCC(C)(C)C(=O)C(=O)N1CCCC[C@H]1C(=O)O[C@H](CCc1ccc(OC)c(OC)c1)c1cccc(OCC(=O)O)c1` [SLFb, reference compound], in data set [1] (NanoBRET, 2 h incubation), the “tracer displacement (in words), FKBP12” value is “markedly reduced probe displacement”. Also, the ΔTm at 40 µM in data set [2] is 2.8 °C; in [8], 6.6 °C. In addition, the IC50 is 27 nM in [3] (fluorescence polarization, competitive inhibition model, read-out: FKBP12 IC50); 33700 nM in data set [4]; 761 nM in data set [5]. In addition, the “tracer displacement (in words), FKBP35” value in data set [6] (NanoBRET, 2 h incubation) was “markedly reduced probe displacement”. For the same compound, in [12], the concentration in solution (solubility) came to 59 µM (≈ 34.4 µg/mL).
For `CC[C@H]1CN(Cc2ccccn2)C(=O)[C@@H]2CCC[C@H]1N2S(=O)(=O)c1cc(Cl)cc(Cl)c1` [[4.3.1]-ABS], the IC50 in data set [13] was 2300 nM.
The compound `CC(C)C[C@H](NC(=O)[C@H](CCc1ccccc1)NC(=O)CN1CCOCC1)C(=O)N[C@@H](Cc1ccccc1)C(=O)N[C@@H](CC(C)C)C(=O)[C@@]1(C)CO1` [carfilzomib] displayed an IC50 at 72 h in data set [11] of 15 nM.
